Experimental data as given in ChEMBL document CHEMBL4507276 (2021).

What was measured:
[1] = molecular target: Fibroblast growth factor receptor 2 (Homo sapiens) (UniProt P21802); conditions: Compound concentration 1000.0 nM
[2] = molecular target: Cyclin-dependent kinase 4 (Homo sapiens) (UniProt P11802); conditions: Compound concentration 1000.0 nM
[3] = molecular target: Serine/threonine-protein kinase OSR1 (Homo sapiens) (UniProt O95747); conditions: Compound concentration 1000.0 nM
[4] = tested on: Epidermal growth factor receptor (Homo sapiens), P00533 [UNDEFINED MUTATION]; conditions: Compound concentration 1000.0 nM
[5] = molecular target: Mitogen-activated protein kinase 7 (Homo sapiens) (UniProt Q13164); conditions: Compound concentration 1000.0 nM
[6] = molecular target: T1, Ephrin type-A receptor 8 (Homo sapiens) (UniProt P29322); conditions: Compound concentration 1000.0 nM
T1 sequence (whole entry): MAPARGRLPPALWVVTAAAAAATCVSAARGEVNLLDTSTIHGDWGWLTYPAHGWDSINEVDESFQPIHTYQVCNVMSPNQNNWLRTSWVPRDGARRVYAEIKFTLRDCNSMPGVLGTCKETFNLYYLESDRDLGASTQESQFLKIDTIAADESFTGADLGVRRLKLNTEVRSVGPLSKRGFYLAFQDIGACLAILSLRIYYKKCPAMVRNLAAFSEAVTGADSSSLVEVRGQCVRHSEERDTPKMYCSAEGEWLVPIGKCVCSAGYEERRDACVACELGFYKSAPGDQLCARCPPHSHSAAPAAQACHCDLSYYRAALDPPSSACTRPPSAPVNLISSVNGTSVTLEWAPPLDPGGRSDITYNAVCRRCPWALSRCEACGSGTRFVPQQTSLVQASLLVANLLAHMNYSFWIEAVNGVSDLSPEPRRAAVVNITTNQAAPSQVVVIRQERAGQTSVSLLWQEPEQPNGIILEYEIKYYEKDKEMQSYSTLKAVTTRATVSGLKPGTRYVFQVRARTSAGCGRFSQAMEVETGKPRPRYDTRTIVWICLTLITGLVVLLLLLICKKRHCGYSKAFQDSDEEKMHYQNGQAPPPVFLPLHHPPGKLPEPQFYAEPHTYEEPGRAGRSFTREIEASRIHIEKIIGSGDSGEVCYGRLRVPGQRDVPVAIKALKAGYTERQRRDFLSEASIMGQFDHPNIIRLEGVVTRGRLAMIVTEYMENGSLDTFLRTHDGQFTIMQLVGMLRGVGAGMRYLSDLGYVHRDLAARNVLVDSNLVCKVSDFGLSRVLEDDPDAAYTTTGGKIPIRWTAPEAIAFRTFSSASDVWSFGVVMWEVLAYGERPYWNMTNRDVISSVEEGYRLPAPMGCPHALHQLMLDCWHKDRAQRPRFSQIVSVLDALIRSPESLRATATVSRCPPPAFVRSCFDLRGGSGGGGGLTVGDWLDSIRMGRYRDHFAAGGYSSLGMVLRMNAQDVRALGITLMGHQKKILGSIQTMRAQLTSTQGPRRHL

[7] = molecular target: Sodium-dependent dopamine transporter (Homo sapiens, UniProt Q01959); conditions: Compound concentration 10.0 uM
[8] = molecular target: Casein kinase I isoform epsilon (Homo sapiens) (UniProt P49674); conditions: Compound concentration 1000.0 nM
[9] = molecular target: LIM domain kinase 2 (Homo sapiens) (UniProt P53671); conditions: Compound concentration 1000.0 nM
[10] = molecular target: Serine/threonine-protein kinase RIO1 (Homo sapiens) (UniProt Q9BRS2); conditions: Compound concentration 1000.0 nM
[11] = molecular target: Calcium-dependent protein kinase 1 (Plasmodium falciparum) (UniProt P62344); conditions: Compound concentration 1000.0 nM
[12] = tested on: Tyrosine-protein kinase ABL1 (Homo sapiens), P00519 [M351T]; conditions: Compound concentration 1000.0 nM
[13] = molecular target: Ribosomal protein S6 kinase alpha-5 (Homo sapiens) (UniProt O75582); conditions: Compound concentration 1000.0 nM
[14] = molecular target: Serine/threonine-protein kinase Nek5 (Homo sapiens) (UniProt Q6P3R8); conditions: Compound concentration 1000.0 nM
[15] = molecular target: Tyrosine-protein kinase SYK (Homo sapiens) (UniProt P43405); conditions: Compound concentration 1000.0 nM
[16] = molecular target: Serine/threonine-protein kinase mTOR (Homo sapiens) (UniProt P42345); conditions: Compound concentration 1000.0 nM
[17] = molecular target: Maternal embryonic leucine zipper kinase (Homo sapiens) (UniProt Q14680); conditions: Compound concentration 1000.0 nM
[18] = molecular target: T2, Activin receptor type-1B (Homo sapiens) (UniProt P36896); conditions: Compound concentration 1000.0 nM
T2 sequence (whole entry): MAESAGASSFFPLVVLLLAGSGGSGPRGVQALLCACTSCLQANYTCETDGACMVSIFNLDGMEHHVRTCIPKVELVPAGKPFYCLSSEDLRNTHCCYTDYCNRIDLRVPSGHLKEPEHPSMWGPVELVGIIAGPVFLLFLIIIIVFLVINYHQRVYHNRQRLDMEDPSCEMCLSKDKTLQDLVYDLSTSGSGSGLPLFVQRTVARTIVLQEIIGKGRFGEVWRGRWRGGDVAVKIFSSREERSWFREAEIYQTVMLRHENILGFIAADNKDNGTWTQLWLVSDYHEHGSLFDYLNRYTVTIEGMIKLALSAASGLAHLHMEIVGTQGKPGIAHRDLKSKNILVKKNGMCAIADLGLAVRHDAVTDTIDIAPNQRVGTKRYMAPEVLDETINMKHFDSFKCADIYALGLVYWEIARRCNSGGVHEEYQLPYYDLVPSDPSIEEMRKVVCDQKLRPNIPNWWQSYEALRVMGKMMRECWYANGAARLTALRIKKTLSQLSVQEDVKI

[19] = molecular target: LIM domain kinase 1 (Homo sapiens) (UniProt P53667); conditions: Compound concentration 1000.0 nM
Chain of LIM domain kinase 1 (Homo sapiens) (P53667 whole entry, looked up, the tested form may be a part): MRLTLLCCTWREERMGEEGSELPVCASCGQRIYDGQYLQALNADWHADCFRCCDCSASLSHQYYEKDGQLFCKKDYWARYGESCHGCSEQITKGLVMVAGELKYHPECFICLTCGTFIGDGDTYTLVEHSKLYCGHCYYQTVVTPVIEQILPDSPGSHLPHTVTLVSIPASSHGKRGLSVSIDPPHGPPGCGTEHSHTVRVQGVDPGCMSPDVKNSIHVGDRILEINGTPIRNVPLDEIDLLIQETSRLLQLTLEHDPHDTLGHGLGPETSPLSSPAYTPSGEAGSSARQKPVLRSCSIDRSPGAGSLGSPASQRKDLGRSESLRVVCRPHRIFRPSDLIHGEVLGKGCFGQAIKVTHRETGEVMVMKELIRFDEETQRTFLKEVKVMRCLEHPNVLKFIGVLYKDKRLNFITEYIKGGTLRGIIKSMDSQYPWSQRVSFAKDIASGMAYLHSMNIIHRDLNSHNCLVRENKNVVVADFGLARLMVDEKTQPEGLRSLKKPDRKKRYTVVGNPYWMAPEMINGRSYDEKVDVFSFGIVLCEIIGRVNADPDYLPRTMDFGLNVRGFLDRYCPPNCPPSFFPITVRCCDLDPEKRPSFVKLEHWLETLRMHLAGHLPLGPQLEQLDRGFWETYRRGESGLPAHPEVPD

Chain of Maternal embryonic leucine zipper kinase (Homo sapiens) (Q14680 whole entry, looked up): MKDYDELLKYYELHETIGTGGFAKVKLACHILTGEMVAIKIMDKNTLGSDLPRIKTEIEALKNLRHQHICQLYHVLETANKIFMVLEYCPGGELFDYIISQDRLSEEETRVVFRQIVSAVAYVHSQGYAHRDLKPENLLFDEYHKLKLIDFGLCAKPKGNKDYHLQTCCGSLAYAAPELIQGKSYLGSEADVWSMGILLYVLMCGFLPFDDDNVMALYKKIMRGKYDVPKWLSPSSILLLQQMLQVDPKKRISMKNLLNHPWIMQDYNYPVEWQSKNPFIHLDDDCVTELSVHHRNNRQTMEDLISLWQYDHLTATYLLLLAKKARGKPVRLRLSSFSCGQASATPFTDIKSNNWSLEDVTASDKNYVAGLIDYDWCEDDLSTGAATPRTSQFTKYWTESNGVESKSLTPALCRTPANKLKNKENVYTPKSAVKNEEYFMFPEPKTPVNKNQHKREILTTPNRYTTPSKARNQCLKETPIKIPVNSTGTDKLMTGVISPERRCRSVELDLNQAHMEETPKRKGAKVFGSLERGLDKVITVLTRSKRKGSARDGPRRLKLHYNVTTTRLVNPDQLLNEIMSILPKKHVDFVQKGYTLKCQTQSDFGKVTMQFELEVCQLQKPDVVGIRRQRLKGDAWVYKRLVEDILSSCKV
Chain of Mitogen-activated protein kinase 7 (Homo sapiens) (Q13164 2-816 limits assumed): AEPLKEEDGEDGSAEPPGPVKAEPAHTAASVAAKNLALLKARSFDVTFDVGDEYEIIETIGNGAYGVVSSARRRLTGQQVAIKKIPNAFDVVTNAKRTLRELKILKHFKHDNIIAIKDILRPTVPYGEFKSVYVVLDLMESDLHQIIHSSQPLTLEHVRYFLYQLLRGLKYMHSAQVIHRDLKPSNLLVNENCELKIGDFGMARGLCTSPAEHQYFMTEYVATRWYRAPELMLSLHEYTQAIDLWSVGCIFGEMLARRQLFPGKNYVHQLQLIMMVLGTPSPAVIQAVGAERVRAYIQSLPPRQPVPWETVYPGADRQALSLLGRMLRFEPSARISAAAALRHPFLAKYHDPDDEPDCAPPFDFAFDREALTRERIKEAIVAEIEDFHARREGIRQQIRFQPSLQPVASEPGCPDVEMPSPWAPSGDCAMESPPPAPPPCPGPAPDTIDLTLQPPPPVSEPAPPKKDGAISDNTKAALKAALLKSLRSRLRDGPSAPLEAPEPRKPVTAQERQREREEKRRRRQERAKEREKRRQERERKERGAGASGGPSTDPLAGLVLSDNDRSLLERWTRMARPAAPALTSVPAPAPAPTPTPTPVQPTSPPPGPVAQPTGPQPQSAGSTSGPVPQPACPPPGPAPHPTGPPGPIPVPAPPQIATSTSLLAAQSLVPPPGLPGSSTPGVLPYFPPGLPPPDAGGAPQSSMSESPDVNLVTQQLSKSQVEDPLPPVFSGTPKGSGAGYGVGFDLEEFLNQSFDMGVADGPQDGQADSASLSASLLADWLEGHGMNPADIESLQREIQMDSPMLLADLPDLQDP
Chain of Serine/threonine-protein kinase RIO1 (Homo sapiens) (Q9BRS2 whole entry): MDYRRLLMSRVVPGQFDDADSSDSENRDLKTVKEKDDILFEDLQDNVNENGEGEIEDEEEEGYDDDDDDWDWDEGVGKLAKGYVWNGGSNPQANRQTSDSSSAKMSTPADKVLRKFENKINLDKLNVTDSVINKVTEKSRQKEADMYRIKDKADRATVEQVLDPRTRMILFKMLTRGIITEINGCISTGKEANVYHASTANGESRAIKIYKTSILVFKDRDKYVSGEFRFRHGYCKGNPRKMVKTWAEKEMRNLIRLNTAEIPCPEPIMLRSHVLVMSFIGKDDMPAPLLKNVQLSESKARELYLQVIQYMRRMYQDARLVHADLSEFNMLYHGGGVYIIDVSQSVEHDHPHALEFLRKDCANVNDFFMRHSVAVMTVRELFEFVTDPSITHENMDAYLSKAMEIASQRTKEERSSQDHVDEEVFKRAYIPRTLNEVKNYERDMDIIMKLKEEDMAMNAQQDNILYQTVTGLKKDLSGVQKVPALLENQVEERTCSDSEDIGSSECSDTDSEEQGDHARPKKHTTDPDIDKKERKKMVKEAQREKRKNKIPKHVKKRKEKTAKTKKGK
Chain of Serine/threonine-protein kinase Nek5 (Homo sapiens) (Q6P3R8 whole entry): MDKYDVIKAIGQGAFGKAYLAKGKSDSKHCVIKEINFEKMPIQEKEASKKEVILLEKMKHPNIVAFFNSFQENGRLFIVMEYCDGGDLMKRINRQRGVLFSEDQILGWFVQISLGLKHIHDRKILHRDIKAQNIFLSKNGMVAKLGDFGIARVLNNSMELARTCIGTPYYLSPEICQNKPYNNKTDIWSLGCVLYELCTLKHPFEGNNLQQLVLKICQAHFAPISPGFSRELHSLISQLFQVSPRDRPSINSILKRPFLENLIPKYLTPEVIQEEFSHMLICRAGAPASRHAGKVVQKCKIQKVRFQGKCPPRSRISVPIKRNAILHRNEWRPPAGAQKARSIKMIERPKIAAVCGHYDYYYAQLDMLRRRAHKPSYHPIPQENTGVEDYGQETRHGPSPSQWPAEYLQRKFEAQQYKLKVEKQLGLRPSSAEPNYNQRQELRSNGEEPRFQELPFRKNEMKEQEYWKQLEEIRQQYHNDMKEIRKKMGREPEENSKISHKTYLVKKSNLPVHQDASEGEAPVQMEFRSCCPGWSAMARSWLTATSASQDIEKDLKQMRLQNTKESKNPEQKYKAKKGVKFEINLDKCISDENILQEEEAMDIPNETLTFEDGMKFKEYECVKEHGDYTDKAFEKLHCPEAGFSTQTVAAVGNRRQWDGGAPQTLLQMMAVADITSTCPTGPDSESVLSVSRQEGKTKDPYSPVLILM
Chain of Sodium-dependent dopamine transporter (Q01959 whole entry, canonical isoform): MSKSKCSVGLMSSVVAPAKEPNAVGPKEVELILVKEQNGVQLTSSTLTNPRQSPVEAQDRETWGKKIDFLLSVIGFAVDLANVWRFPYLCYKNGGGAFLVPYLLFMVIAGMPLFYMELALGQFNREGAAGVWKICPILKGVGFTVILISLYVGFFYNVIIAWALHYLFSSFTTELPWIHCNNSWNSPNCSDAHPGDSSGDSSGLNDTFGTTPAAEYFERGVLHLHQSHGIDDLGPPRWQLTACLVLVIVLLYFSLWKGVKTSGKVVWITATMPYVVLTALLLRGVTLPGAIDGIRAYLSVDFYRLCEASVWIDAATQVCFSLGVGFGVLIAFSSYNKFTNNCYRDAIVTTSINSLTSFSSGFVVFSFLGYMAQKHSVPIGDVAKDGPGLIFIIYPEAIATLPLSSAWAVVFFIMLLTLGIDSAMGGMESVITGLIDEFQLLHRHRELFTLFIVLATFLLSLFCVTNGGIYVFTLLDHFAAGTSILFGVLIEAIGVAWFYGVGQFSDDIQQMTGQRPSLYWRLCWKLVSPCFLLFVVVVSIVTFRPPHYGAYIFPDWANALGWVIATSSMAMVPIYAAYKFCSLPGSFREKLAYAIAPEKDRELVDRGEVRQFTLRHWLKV
Chain of LIM domain kinase 2 (Homo sapiens) (P53671 whole entry, looked up, the tested form may be a part): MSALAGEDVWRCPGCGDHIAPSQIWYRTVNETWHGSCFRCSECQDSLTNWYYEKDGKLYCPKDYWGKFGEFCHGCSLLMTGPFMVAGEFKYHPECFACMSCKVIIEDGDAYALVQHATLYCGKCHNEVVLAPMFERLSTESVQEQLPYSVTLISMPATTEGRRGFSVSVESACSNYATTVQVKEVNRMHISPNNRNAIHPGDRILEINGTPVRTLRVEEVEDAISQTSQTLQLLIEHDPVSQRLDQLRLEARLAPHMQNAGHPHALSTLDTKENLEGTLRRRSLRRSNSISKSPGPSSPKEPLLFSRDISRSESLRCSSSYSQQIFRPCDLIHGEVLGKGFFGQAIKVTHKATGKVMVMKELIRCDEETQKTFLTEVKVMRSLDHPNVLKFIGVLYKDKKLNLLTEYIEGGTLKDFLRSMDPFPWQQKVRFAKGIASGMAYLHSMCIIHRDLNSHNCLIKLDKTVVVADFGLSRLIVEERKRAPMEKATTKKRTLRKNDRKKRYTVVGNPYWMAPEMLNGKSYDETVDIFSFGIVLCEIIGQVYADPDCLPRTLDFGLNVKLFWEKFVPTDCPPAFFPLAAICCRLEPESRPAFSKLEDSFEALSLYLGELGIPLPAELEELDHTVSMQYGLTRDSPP
Chain of Cyclin-dependent kinase 4 (Homo sapiens) (P11802 whole entry): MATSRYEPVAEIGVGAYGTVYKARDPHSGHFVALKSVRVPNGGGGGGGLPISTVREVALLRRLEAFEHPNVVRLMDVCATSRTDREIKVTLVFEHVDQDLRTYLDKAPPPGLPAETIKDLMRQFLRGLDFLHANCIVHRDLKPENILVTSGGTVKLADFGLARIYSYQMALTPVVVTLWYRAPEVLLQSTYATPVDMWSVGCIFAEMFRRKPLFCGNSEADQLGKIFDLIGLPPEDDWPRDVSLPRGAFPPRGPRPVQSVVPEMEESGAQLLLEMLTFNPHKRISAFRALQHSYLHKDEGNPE

| Structure (SMILES) | residual activity [1] | residual activity [2] | residual activity [3] | residual activity [4] | residual activity [5] | residual activity [6] | inhibition [7] | residual activity [8] | residual activity [9] | residual activity [10] | residual activity [11] | residual activity [12] | residual activity [13] | residual activity [14] | residual activity [15] | residual activity [16] | residual activity [17] | residual activity [18] | residual activity [19] |
| --- | --- | --- | --- | --- | --- | --- | --- | --- | --- | --- | --- | --- | --- | --- | --- | --- | --- | --- | --- |
| CN(C)C(=O)Cn1cc(-c2nc(C3(c4ccc(-c5cnc(N)nc5)cc4)CC3)no2)cn1 [BI 0153] | 100% | 67% | 82% | 79% | 97% | 87% | 52.4% | 100% | 85% | 100% | 82% | 100% | 98% | 89% | 77% | 91% | 92% | 84% | 100% |
| CN(C)C(=O)Cn1cc(-c2nc([C@@](C)(c3ccc(-c4cnc(N)nc4)cc3)C3CC3)no2)cn1 [BI 665915] | 85% | 94% | 86% | 75% | 90% | 100% | 60.7% | 97% | 85% | 100% | 58% | 80% | 93% | 89% | 73% | 100% | 87% | 89% | 81% |
